From publication PMC5736782, “The Differential Absorption of a Series of P-Glycoprotein Substrates in Isolated Perfused Lungs from Mdr1a/1b Genetic Knockout Mice can be Attributed to Distinct Physico-Chemical Properties: an Insight into Predicting Transporter-Mediated, Pulmonary Specific Disposition” (Pharmaceutical Research, 2017)

Experiments:
[1] = design: method as in PMID 4654354; conditions: cited from earlier work
[2] = design: method as in PMID 12761811; conditions: cited from earlier work
[3] = test system: Caco-2 cell model; design: method as in PMID 12761811; conditions: cited from earlier work
[4] = test system: P-gp (Mdr1a/1b) in mouse intestinal segments; assay: Ussing chamber intestinal permeability, ileal segments Mdr1a/1b (+/+) vs (−/−); conditions: for Mdr1a/1b (−/−) Permeability coefficient: P-gp knockout intestinal segments; for Mdr1a/1b (−/−) Permeability coefficient / Mdr1a/1b (+/+) Permeability coefficient: mucosal to serosal, 50 μM, 180 min; for Mdr1a/1b (+/+) Permeability coefficient: wild-type intestinal segments; for Ratio Permeability (−/−): (+/+): intestinal Papp KO:WT
Method: The bathing fluid for both mucosal and serosal surfaces (3 mL volume in each chamber) comprised oxygenated Krebs-Henseleit buffer maintained at 37°C (heating block) under stirred conditions (gas flow manifold). […] Any intestinal segments presenting an initial TEER of lower than 80 Ω.cm^2 were discarded prior to the experiment, likewise any segments whose TEER decreased by more than 10% over the course of the experiment were excluded.
Thereafter permeability coefficients were determined according to Eq. 4:4 ρ=dM/dt/A^∗C0

[5] = test system: P-glycoprotein (Mdr1a/Mdr1b) in isolated perfused mouse lung; assay: Isolated perfused mouse lung (IPML) airway-to-perfusate absorption, Mdr1a/1b (+/+) vs (−/−); conditions: for Mdr1a/1b (+/+) % Deposited Dose absorbed / Mdr1a/1b (-/-) % Deposited Dose absorbed / Mdr1a/1b (+/+) ‘F’ estimate by model fit [95% CI) / Mdr1a/1b (-/-) ‘F’ estimate by model fit [95% CI) / Ratio AUCs (-/-) : (+/+): male, mouse, 50 μM; for Mdr1a/1b (+/+) % Deposited Dose absorbed / Mdr1a/1b (-/-) % Deposited Dose absorbed: 30 min
Method: The atria and the lower half of the heart were cut to allow the free flow of perfusate. The lungs were removed and suspended vertically in a custom water-jacketed glass thorax (Radleys, Essex, UK) maintained at 37°C.
Following dosing of compound into the IPML airways serial samples (250 μL) were collected for bioanalysis from the 10 mL recirculating perfusate reservoir. Each sample collected from the reservoir was replaced with an equal volume of fresh warmed, oxygenated perfusate. Upon termination of the experiment the dose solutions, apparatus washings and perfusate samples were collected for mass balance calculations enabling determination of the actual total dose delivered to the lungs.
Radioactive compounds were directly analysed by liquid scintillation counting. Volumes of 50 μL perfusate samples were mixed with 3 mL of Scintisafe 3 Liquid Scintillation Fluid (Fisher, UK) and transferred to vials for scintillation counting using a TriCarb 2900TR (Packard Bioscience, USA).
After accounting for the mass of compound removed at each sample point, plots of the cumulative ‘%deposited dose absorbed’ versus ‘time’ were generated and subject to nonlinear regression analysis according to a first-order absorption one-compartment accumulating model (Eq. 1) to generate estimates for the extent (F) and rate (Ka) of absorption from the IPML airways to the recirculating perfusate.
The data was also subject to standard non-compartmental analysis, specifically Area Under Curve (AUC0–30 min) of ‘%deposited dose absorbed’ versus ‘time’ (units: %Dose.min) and reflecting for the exclusively accumulating perfusate ‘compartment’ the exposure arising from the IPML absorption process alone.

[6] = Immobilised artificial membrane (IAM) chromatography; assay type: physicochemical; conditions: extrapolated to 100% water; mean of four experiments
Method: IAM chromatography provided an experimental measure of substrate membrane affinity and phospholipid interaction. The IAM column (Regis Technologies Inc., Hichrom, Reading, UK; IAM.PC.DD2 10 cm x 4.6 mm ID column) was run under isocratic eluting conditions with the retention of all compounds determined under three mobile phase conditions: 10%, 20% and 30% acetonitrile in water, and from which the theoretical retention time in 100% water was calculated by linear regression. LogK^IAM values were calculated according to Eq. 2:2 LogK^IAM=LogTr−T0/T0
where Tr and T0 are respectively the retention times of the substrate in 100% water and of the unretained compound, i.e. eluting within the solvent front of 75 s in all experiments.

[7] = target: mouse Mdr1a (Mus musculus, UniProt P21447); assay: Gentest ABC transporter membrane ATPase assay; conditions: 0–300 μM, 30 min, 37°C
Description: (§1) The Gentest ATPase assay (Corning, Germany) was used to investigate the binding kinetics of the panel of P-gp substrates against membranes constituted to display human MDR1, mouse Mdr1a, mouse Mdr1b and mouse Bcrp. The assays measure the accumulation of inorganic phosphate (absorbance at 800 nm) produced in the breakdown of ATP to ADP. […] The assays were used in accordance with the manufacturer’s protocol to calculate (GraphPad Prism) the Michaelis-Menten parameters Km and VMAX. For the assay test compounds were serially diluted to produce an assay concentration range of 0–300 μM with the kinetics of ATP turnover examined over 30 min at 37°C.

[8] = target: T1, mouse Bcrp (Mus musculus, UniProt Q7TMS5); assay: Gentest ABC transporter membrane ATPase assay; assay type: biochemical; conditions: for Vmax: ATPase, 0 indicates no enzyme turnover
T1 construct: purchased Corning (Gentest), Germany
T1 sequence (Q7TMS5 1-657): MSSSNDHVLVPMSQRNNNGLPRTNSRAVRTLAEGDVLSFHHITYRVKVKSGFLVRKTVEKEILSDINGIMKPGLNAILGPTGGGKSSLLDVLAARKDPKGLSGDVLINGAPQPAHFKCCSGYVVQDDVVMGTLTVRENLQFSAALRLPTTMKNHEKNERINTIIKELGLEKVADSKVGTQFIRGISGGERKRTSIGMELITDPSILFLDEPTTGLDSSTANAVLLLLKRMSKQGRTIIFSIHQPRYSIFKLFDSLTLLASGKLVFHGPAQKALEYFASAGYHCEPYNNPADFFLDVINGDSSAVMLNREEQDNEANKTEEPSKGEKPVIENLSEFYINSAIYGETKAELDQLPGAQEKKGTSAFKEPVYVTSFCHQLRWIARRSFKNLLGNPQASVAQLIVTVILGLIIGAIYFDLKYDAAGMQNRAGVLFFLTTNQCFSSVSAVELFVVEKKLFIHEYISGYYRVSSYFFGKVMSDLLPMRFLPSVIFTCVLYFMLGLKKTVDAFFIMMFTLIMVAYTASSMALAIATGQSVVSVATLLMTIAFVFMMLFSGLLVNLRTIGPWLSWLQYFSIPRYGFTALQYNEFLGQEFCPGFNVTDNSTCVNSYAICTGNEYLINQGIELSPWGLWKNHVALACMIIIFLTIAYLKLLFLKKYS
Description: as §1

[9] = Multi-lamellar liposome vesicle (MLV) partitioning; assay type: physicochemical; conditions: (C0−CS)/C0, 1 μg/mL, 4 h, 37°C, PBS pH 7.4
Method: MLVs were formed as previously described ([20]). Briefly, solutions of 8 mg phosphatidylcholine and 2 mg phosphatidylglycerol in 10 mL chloroform were completely dried to a lipid film (rotation under vacuum).
These preparations were then incubated at 37°C for 4 h under shaking conditions to allow equilibration of compound between the lipid and aqueous fractions. The MLVs were then pelleted and 100 μL of supernatant removed for analysis by radiometric or LC-MS/MS methods as described above. Partitioning into the MLVs was determined according to Eq. 3:3 MLVpartitioning=C0−CS/C0
where C0 is the initial compound concentration (1 μg/mL) and CS is the compound concentration present in the aqueous supernatant at the end of 4 h incubation.

[10] = target: mouse Mdr1b (Mus musculus, UniProt P06795); assay: Gentest ABC transporter membrane ATPase assay; conditions: 0–300 μM, 30 min, 37°C
[11] = target: human MDR1 (Homo sapiens, UniProt P08183); assay: Gentest ABC transporter membrane ATPase assay; conditions: ATPase, 0–300 μM, 30 min, 37°C
Description: as §1

[12] = test system: P-gp; design: method as in PMID 23670704; conditions: IPRL and IPML models; cited from earlier work

Sequence of human MDR1 (P08183 whole entry): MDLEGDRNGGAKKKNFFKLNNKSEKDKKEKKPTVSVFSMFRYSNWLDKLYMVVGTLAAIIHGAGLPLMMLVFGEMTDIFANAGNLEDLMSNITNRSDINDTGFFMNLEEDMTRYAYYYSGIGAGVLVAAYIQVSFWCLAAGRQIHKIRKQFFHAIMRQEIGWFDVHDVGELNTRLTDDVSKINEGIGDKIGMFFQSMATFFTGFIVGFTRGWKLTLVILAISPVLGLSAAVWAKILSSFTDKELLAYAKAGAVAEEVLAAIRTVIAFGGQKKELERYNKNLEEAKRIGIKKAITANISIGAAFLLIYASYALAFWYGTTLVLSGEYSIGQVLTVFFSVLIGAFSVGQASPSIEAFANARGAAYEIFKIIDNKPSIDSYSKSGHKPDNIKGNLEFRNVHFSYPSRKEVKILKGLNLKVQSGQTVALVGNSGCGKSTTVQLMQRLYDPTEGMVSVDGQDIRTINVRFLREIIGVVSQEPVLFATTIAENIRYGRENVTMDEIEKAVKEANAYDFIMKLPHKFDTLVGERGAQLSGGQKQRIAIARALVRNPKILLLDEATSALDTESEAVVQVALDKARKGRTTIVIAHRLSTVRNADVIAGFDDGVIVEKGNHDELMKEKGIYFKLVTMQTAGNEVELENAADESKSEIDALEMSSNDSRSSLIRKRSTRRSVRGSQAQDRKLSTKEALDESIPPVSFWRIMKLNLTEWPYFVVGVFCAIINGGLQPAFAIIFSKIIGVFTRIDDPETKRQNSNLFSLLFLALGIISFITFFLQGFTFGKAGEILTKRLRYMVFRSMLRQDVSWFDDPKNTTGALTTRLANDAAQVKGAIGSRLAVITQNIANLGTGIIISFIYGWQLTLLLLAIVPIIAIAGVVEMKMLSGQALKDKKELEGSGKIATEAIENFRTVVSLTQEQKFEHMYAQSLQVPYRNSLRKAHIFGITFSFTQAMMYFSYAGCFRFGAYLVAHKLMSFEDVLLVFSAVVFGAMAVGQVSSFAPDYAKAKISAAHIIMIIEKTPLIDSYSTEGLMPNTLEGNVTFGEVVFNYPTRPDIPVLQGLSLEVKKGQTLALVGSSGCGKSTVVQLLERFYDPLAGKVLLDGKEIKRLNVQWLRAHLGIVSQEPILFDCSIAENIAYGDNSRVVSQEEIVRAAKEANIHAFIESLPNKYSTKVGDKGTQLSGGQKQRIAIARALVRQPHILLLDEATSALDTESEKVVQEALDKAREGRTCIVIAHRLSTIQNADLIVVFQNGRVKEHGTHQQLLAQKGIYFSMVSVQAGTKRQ
Sequence of mouse Mdr1b (P06795 whole entry): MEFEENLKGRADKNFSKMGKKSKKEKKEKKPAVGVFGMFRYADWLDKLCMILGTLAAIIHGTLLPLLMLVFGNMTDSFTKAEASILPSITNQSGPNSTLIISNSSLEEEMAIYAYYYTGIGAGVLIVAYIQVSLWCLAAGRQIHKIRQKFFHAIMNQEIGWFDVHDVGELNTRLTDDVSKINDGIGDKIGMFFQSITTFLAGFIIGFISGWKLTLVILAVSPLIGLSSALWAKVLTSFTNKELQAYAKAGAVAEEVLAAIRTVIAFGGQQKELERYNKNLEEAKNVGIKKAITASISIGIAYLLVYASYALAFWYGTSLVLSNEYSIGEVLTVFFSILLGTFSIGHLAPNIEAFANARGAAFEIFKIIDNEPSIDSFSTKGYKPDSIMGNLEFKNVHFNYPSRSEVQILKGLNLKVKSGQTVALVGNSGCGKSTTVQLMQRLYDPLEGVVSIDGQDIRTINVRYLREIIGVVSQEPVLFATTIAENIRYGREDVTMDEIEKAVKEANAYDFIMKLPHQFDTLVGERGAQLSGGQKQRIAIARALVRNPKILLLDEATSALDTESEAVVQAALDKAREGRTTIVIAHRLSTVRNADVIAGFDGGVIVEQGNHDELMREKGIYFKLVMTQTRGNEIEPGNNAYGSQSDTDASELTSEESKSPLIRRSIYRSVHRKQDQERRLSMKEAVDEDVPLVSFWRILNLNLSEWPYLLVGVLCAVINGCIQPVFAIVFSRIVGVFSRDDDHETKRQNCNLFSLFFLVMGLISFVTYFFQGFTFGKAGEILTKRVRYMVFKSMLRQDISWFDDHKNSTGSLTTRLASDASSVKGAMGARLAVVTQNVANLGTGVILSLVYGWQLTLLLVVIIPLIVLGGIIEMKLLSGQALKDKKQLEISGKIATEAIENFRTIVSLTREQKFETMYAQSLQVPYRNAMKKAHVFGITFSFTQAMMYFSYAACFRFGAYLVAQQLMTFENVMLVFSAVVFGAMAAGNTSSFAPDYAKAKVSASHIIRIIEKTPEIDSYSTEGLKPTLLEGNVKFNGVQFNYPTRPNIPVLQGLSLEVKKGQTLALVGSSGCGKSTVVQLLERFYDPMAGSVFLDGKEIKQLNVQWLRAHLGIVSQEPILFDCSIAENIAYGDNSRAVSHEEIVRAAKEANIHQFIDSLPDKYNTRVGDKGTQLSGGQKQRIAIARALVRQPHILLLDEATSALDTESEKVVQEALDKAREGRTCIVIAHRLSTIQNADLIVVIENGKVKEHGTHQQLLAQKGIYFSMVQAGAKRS
Sequence of mouse Mdr1a (P21447 whole entry): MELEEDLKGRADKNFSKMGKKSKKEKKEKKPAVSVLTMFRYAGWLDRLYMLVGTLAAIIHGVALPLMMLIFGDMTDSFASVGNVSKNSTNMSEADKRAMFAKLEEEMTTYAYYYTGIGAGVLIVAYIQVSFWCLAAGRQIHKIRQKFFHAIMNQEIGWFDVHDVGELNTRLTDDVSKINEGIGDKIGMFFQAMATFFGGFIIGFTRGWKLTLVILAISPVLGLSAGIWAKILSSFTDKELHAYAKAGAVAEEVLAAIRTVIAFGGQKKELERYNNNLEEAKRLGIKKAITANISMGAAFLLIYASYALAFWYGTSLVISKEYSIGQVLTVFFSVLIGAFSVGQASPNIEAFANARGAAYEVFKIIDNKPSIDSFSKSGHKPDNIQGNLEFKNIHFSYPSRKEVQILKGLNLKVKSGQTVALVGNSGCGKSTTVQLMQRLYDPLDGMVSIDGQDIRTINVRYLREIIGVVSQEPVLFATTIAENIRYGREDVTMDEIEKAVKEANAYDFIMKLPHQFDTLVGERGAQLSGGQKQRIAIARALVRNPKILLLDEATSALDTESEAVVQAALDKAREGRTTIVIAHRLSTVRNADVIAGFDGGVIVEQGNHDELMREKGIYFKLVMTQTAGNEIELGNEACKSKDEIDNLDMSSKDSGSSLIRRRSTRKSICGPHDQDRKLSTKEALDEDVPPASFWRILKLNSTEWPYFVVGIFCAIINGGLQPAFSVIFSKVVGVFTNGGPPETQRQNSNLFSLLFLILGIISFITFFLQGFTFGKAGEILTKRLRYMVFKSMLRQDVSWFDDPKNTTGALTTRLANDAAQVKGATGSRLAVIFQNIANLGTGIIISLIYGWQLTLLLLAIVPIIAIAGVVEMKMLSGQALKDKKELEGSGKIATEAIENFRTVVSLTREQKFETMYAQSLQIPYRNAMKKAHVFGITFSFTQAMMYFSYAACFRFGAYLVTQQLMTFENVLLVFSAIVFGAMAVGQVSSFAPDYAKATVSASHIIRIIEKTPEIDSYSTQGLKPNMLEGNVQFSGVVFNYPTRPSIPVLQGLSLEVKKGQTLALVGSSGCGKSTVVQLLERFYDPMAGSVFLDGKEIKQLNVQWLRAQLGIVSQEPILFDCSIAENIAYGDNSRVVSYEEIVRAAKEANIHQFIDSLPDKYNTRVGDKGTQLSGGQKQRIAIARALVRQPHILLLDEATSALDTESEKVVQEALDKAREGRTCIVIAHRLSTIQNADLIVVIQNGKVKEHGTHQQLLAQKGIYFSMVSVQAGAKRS

| Compound | Mdr1a/1b (−/−) Permeability coefficient [4] | Mdr1a/1b (+/+) Permeability coefficient [4] | Group (impact of Mdr1a/1b knockout on IPML absorption) [5] | Mdr1a/1b (+/+) % Deposited Dose absorbed [5] [%] | Mdr1a/1b (-/-) % Deposited Dose absorbed [5] [%] | LogK^IAM [6] | Vmax [7] [µM/min] | Vmax [8] [µM/min] | MLV Partitioning [9] | Vmax [10] [µM/min] | Mdr1a/1b (+/+) ‘F’ estimate by model fit [95% CI) [5] | Mdr1a/1b (-/-) ‘F’ estimate by model fit [95% CI) [5] | also measured |
| --- | --- | --- | --- | --- | --- | --- | --- | --- | --- | --- | --- | --- | --- |
| inulin | – | – | – | – | – | – | – | – | – | – | – | – | absorbed from the lung [1]: 17 % of administered dose; absorbed from the small intestine [1]: < 2% |
| CC(C)(C)NCC(O)c1cc(O)cc(O)c1 (stereo not shown) [terbutaline] | – | – | – | – | – | – | – | – | – | – | – | – | permeability across the lung [2]: high permeability; Papp [3]: < 10 nm/s |
| O=C(O)c1cc(=O)c2c(OCC(O)COc3cccc4oc(C(=O)O)cc(=O)c34)cccc2o1 [cromolyn] | – | – | – | – | – | – | – | – | – | – | – | – | permeability across the lung [2]: high permeability; Papp [3]: < 10 nm/s |
| CC[C@H]1OC(=O)[C@H](C)[C@@H](O[C@H]2C[C@@](C)(OC)[C@@H](O)[C@H](C)O2)[C@H](C)[C@@H](O[C@@H]2O[C@H](C)C[C@H](N(C)C)[C@H]2O)[C@](C)(O)C[C@@H](C)C(=O)[C@H](C)[C@@H](O)[C@]1(C)O [Erythromycin, erythromycin] | 13.70 ± 4.54 cm/s (x10^−6) | 3.02 ± 1.15 cm/s (x10^−6) | GROUP A | 55.5 | 54.1 | 0.88 | 28.4 | 0 | 0.46 | 48.5 | – | – | – |
| CCCCc1nc(Cl)c(CO)n1Cc1ccc(-c2ccccc2-c2nn[nH]n2)cc1 [losartan] | – | – | – | – | – | – | – | – | – | – | – | – | extent of pulmonary absorption ([2]; nebulised solutions, anaesthetised rats, mM concentrations): 92%; t^1/2absorption ([2]; nebulised solutions, anaesthetised rats): 5 min |
| COc1ccc(C[C@H](N)C(=O)N[C@H]2[C@@H](O)[C@H](n3cnc4c(N(C)C)ncnc43)O[C@@H]2CO)cc1 [Puromycin, puromycin] | 14.95 ± 2.33 cm/s (x10^−6) | 5.83 ± 2.38 cm/s (x10^−6) | GROUP A | 46.9 | 49.3 | 1.31 | 16.5 | 0 | 0.62 | 31.5 | 48.2 [43.7 to 52.8] | 56.1 [48.1 to 64.1] | Ratio Permeability (−/−): (+/+) [4]: 2.56; Ratio AUCs (-/-) : (+/+) [5]: 1.01; Vmax [11]: 19.6 µM/min |
| CN(C)C(=O)C(CCN1CCC(O)(c2ccc(Cl)cc2)CC1)(c1ccccc1)c1ccccc1 [loperamide] | – | – | – | – | – | – | – | – | – | – | – | – | effect of P-gp inhibition (GF120918) upon pulmonary absorption [12]: affected |
| O=c1[nH]c2ccccc2n1CCCN1CCC(n2c(=O)[nH]c3cc(Cl)ccc32)CC1 [Domperidone, domperidone] | – | – | – | – | – | 1.33 | – | – | 0.92 | – | – | – | – |
| O=C1c2c(O)ccc(O)c2C(=O)c2c(NCCNCCO)ccc(NCCNCCO)c21 [Mitoxantrone, mitoxantrone] | 13.70 ± 2.69 cm/s (x10^−6) | 4.69 ± 1.06 cm/s (x10^−6) | GROUP A | 25.1 | 23.3 | 1.13 | 27.5 | 4.79 | 0.59 | 35.0 | 26.4 [21.9 to 30.9] | 24.9 [20.8 to 28.9] | interaction with Bcrp (ATP turnover) ([8]; mouse Bcrp membrane model): showed evidence of interactions with Bcrp |
| CCN(CC)CCCC(C)Nc1ccnc2cc(Cl)ccc12 (stereo not shown) [Chloroquine, chloroquine] | 23.39 ± 4.18 cm/s (x10^−6) | – | – | – | – | 1.43 | – | – | – | – | – | – | – |
| OCc1cc(C(O)CNCCCCCCOCCCCc2ccccc2)ccc1O (stereo not shown) [Salmeterol, salmeterol] | 18.33 ± 2.38 cm/s (x10^−6) | 15.8 ± 2.16 cm/s (x10^−6) | GROUP B | 36.7 | 48.7 | 1.60 | 27.5 | 0 | 0.80 | 38.2 | 42.9 [34.6 to 47.2] | 57.3 [48.3 to 66.3] | Ratio Permeability (−/−): (+/+) [4]: 1.16; Ratio AUCs (-/-) : (+/+) [5]: 1.37; Vmax [11]: 24.4 µM/min |
| OC[C@@H](O)[C@@H](O)[C@H](O)[C@H](O)CO [mannitol] | – | – | – | – | – | – | – | – | – | – | – | – | absorbed from the lung [1]: 50 % of administered dose; absorbed from the small intestine [1]: < 2%; Mdr1a/1b (+/+) % Deposited Dose absorbed ([5]; FVB/B6 Mdr1a/1b(+/+) wild-type): 44.3 ± 9.4%; Mdr1a/1b (-/-) % Deposited Dose absorbed ([5]; FVB/B6 Mdr1a/1b(−/−) knockout): 43.2 ± 10.2% |
| CN1CCC[C@@H]1Cc1c[nH]c2ccc(CCS(=O)(=O)c3ccccc3)cc12 [Eletriptan, eletriptan] | 11.04 ± 2.17 cm/s (x10^−6) | 4.90 ± 2.51 cm/s (x10^−6) | GROUP B | 17.9 | 26.6 | 1.46 | – | 0 | 0.94 | – | 18.5 [16.5 to 20.5] | 25.8 [23.6 to 27.9] | Ratio Permeability (−/−): (+/+) [4]: 2.26; Ratio AUCs (-/-) : (+/+) [5]: 1.39 |
| CCc1cc2c(cc1CC)CC(NC[C@H](O)c1ccc(O)c3[nH]c(=O)ccc13)C2 [Indacaterol, indacaterol] | 29.22 ± 4.40 cm/s (x10^−6) | 15.2 ± 2.79 cm/s (x10^−6) | GROUP B | 27.6 | 37.3 | 1.23 | 119 | 0 | 0.92 | 132 | 29.3 [25.5 to 33.1] | 40.6 [36.7 to 44.5] | Ratio Permeability (−/−): (+/+) [4]: 1.92; Ratio AUCs (-/-) : (+/+) [5]: 1.37; Vmax [11]: 81.1 µM/min |
